Measured values reported in patent US8962547B2 (Signature Therapeutics, Inc., priority 2011, dated 2015).

Key:
[1] = Pharmacokinetics following PO administration to dogs, Study A (oxycodone in plasma)
[2] = target: T1, trypsin from bovine pancreas (Bos taurus, UniProt P00760); test: In vitro trypsin-mediated prodrug cleavage; type: biochemical
T1 construct: purchased Sigma-Aldrich T8003; host or cells: bovine pancreas
T1 sequence (P00760 24-246): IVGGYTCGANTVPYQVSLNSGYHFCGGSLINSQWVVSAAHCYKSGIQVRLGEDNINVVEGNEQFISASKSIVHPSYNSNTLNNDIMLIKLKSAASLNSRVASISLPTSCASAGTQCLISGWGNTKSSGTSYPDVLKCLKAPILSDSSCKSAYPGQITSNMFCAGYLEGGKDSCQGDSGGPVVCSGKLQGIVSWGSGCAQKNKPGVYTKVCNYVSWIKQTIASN
Method: (§1) The reactions were conducted at 37° C. for 24 h.
(§2) Table 3 indicates the results of exposure of Compound KC-8 to trypsin. […] Table 3 also indicates the cyclization rate of the cyclizable spacer leaving group of Compound KC-22. The results are expressed as half-life of compound disappearance.

trypsin = target: T2, trypsin (Bos taurus, UniProt P00760); test: In vitro trypsin-mediated prodrug cleavage; type: biochemical, bovine; conditions: bovine, trypsin from bovine pancreas; 0.761 mM KC-8•2HCl, Tris pH 8, 37° C.; footnote: adjusted to 4815 BAEE U/mL trypsin
T2 construct: purchased Sigma-Aldrich T8003; host or cells: bovine pancreas
T2 sequence (P00760 24-246): T1 sequence (P00760 24-246)
Method: as §1, §2

[3] = Pharmacokinetics of Compound KC-8 following PO administration to dogs, Study B; type: in vivo, dog; conditions: 4.55 to 18.2 mg/kg
Method: Compound KC-8 was also dosed to dogs in a separate experiment at the doses indicated in Table 2B, and samples were collected at various times over a 48-h period. Otherwise, the procedures were the same as that described for Study A.

[4] = Spacer leaving group cyclization release rate in phosphate buffer; type: physicochemical; conditions: 2.18 mM initial, 50 mM pH 7.4 phosphate buffer, 20° C.
Text: as §2

[5] = male, beagle, dog, plasma, po, 2 mg/kg

Compound: COc1ccc2c3c1O[C@H]1C(OC(=O)N(C)CC(C)(C)CNC(=O)[C@H](CCCNC(=N)N)NC(=O)CNC(=O)CC(=O)O)=CC[C@@]4(O)[C@@H](C2)N(C)CC[C@]314 [Compound KC-8, N-1-[3-(oxycodone-6-enol-carbonyl-methyl-amino)-2,2-dimethyl-propylamine]-arginine-glycine-malonic acid]
- oxycodone PK profile compared to administration of oxycodone ([1]; dogs, PO): suppressed oxycodone Cmax, delayed oxycodone Tmax and extended oxycodone exposure time (AUC)
- release of oxycodone into dog plasma compared to Compound KC-3 ([1]; dogs, PO): significantly enhanced release of oxycodone into dog plasma (higher Cmax and AUC)
- OC formation rate ([2]; 0.761 mM KC-8•2HCl, Tris pH 8, 37° C.): 0.296 ± 0.044 μmol/h/BAEE U
- cleavage by trypsin ([2]; in vitro): can be cleaved by trypsin
- half-life at 0.761 mM (trypsin): 11.3 ± 0.48 min
- oral PK profile in dogs [3]: reproducible oral PK profile in dogs that is dose proportional

Compound: COc1ccc2c3c1O[C@H]1C(OC(=O)N(C)CC(C)(C)CN)=CC[C@@]4(O)[C@@H](C2)N(C)CC[C@]314 [Compound KC-22, N-1-[3-(oxycodone-6-enol-carbonyl-methyl-amino)-2,2-dimethyl-propylamine]]
- Disappearance half-life [4]: 624 ± 0.36 min

Compound: COc1ccc2c3c1O[C@H]1C(=O)CC[C@@]4(O)[C@@H](C2)N(C)CC[C@]314.Cl [Oxycodone, oxycodone HCl, reference compound]
- AUC [1, 5]: 418 ± 54 ng·h/mL
- Cmax [1, 5]: 193 ± 69 ng/mL
- Tmax [1, 5]: 30 min

Compound: N-1-[2-(oxycodone-6-enol-carbonyl-methyl-amino)-ethylamine]-arginine-malonic acid [Compound KC-3]
- OC Cmax ± sd ([1]; oxycodone in dog plasma, 4.15 mg/kg ([…]) PO, LLOQ […]): 10.2 ± 3.3 ng/mL
- AUC ± sd 0-24 h ([1]; oxycodone in dog plasma, 4.15 mg/kg PO): 65.6 ± 22 ng·h/mL
